Measurements taken from article PMC4097020 (Psychopharmacology, 2014).
Where two headings read alike, the source gives them in different places. Marks after values point to notes of the source that are not given here.

Tests used:
[1] = molecular target: T1, h5-HT2A receptor (Homo sapiens, UniProt P28223); assay: IP-1 formation in HEK-h5-HT2A cells; assay type: cell-based; conditions: for agonist character at h5-HT2A receptor, IP-1 formation (in words): compared to 5-HT
[2] = molecular target: T2, recombinant human D2 receptor (Homo sapiens, UniProt P14416); assay: biochemical; assay type: binding
T2 sequence (P14416 whole entry): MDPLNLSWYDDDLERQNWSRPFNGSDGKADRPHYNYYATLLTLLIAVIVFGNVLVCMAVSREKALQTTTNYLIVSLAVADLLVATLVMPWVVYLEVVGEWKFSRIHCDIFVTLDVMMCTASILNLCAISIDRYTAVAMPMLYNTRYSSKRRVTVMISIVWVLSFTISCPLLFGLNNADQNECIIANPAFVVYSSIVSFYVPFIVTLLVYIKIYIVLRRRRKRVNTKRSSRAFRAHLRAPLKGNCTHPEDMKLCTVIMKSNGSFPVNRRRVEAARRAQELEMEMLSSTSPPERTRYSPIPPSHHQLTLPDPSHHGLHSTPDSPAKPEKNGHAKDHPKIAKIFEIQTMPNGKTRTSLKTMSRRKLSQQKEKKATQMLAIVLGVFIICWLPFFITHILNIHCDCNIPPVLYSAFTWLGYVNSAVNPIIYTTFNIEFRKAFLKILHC

[3] = molecular target: T3, recombinant human D3 receptor (Homo sapiens, UniProt P35462); assay: [3H]YM 09151-2 binding to CHOp-D3 cells
T3 sequence (P35462 whole entry): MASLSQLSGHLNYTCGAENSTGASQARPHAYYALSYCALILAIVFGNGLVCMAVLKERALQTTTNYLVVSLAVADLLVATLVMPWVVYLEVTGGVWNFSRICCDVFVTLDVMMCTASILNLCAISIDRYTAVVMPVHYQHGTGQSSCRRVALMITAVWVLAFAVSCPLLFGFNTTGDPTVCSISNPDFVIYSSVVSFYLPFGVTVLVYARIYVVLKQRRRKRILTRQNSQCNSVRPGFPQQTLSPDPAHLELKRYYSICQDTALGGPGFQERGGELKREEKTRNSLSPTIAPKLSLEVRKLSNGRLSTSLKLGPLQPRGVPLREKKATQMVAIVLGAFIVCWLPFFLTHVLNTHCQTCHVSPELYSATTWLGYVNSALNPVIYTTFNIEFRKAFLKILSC

[4] = molecular target: recombinant human D1 receptor (Homo sapiens, UniProt P21728); assay: [3H]SCH23390 binding to LhD1 cells; conditions: read-out: D1 [3H]SCH23390 Ki (nM) ± SEM
recombinant human D1 receptor, sequence (P21728 whole entry): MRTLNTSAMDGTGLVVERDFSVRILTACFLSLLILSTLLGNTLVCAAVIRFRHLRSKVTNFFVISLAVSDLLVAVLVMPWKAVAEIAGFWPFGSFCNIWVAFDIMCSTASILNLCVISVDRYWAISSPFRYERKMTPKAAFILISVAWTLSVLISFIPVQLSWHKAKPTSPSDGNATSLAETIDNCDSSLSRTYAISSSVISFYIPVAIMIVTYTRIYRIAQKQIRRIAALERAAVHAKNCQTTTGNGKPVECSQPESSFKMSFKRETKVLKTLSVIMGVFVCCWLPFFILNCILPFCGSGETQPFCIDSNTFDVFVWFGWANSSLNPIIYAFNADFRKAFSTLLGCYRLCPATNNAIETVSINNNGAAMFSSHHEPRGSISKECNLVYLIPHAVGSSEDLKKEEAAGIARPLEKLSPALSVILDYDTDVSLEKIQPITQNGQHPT

[5] = molecular target: T3, recombinant human D3 receptor; conditions: for agonist activity at hD3 receptor, mitogenesis (in words): compared to quinpirole
[6] = molecular target: T4, human D4.4 receptor (Homo sapiens, UniProt P21917); assay: biochemical; assay type: binding
T4 sequence (P21917 1-419): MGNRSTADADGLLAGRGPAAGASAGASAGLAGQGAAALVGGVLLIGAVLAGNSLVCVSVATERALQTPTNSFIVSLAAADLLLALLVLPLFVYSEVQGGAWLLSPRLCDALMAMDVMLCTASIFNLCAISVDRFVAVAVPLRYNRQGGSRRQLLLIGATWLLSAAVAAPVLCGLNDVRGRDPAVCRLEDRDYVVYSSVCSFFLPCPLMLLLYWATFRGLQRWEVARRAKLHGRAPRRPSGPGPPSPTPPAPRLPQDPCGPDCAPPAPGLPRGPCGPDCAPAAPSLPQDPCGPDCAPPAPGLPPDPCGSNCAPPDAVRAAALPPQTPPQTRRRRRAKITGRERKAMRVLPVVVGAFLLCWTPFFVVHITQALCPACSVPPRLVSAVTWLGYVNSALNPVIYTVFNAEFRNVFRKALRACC

[7] = molecular target: T5, recombinant human norepinephrine transporter (Homo sapiens, UniProt P23975); assay: biochemical; assay type: binding
T5 sequence (P23975 whole entry): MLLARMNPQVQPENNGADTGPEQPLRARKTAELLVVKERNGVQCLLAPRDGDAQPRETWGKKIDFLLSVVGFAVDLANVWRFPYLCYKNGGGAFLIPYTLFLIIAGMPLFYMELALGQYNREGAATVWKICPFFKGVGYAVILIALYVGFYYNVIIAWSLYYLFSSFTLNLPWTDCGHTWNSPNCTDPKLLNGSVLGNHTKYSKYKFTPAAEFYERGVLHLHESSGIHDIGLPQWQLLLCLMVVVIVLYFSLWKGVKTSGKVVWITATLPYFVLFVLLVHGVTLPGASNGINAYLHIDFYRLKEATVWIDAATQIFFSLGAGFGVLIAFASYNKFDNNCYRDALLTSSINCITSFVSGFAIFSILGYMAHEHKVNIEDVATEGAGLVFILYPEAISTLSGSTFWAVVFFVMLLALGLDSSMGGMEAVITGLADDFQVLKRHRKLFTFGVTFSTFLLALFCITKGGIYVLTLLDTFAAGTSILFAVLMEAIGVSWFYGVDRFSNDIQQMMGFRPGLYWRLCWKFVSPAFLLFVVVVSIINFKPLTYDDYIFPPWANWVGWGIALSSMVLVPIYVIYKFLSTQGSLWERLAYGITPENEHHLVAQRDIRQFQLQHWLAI

[8] = molecular target: T2, recombinant human D2 receptor; assay: cell-based; assay type: cell-based
[9] = system: nontransfected HEK-293 cells; assay: IP-1 accumulation in nontransfected HEK-293 cells; assay type: cell-based, human; conditions: (+)mefloquine 100 μM, 5-HT 1 μM, LSD 10 nM
[10] = molecular target: T1, h5-HT2A receptor; assay type: binding
[11] = molecular target: T1, h5-HT2A receptor; assay type: binding; remark: listed apart in the source
[12] = molecular target: T6, recombinant human 5-HT2C receptor (Homo sapiens, UniProt P28335); assay: biochemical; assay type: binding
T6 sequence (P28335 33-458): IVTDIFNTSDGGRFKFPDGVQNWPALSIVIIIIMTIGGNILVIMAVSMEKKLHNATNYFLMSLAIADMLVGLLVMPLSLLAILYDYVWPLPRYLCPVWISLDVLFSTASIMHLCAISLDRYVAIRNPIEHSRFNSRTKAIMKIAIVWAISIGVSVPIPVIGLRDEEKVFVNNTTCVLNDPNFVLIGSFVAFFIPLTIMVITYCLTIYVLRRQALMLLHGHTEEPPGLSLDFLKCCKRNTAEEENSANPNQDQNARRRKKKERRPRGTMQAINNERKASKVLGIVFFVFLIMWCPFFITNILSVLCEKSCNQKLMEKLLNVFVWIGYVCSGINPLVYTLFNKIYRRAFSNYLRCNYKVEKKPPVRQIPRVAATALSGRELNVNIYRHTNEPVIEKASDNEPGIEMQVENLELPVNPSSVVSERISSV

[13] = molecular target: recombinant human 5-HT2A receptor (Homo sapiens, UniProt P28223); assay: [125I]DOI binding to HEK-h5-HT2A cell membranes
recombinant human 5-HT2A receptor, sequence (P28223 whole entry): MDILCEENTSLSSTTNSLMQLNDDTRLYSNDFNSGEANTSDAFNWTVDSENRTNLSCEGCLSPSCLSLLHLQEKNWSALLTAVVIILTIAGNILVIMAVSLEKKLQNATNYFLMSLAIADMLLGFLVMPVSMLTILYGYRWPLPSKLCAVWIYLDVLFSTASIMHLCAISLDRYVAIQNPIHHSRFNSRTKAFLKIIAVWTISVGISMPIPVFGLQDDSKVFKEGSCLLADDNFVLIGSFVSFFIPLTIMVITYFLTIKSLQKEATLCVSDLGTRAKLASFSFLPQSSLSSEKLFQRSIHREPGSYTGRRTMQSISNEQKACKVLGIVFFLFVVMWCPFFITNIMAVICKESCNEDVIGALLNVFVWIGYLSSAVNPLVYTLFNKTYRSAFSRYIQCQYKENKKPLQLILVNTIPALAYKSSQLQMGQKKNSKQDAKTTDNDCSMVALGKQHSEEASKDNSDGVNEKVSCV

[14] = molecular target: T7, recombinant human 5-HT1A receptor (Homo sapiens, UniProt P08908); assay: [3H]8-OH-DPAT binding to HEK-h5-HT1A cell membranes
T7 sequence (P08908 1-422): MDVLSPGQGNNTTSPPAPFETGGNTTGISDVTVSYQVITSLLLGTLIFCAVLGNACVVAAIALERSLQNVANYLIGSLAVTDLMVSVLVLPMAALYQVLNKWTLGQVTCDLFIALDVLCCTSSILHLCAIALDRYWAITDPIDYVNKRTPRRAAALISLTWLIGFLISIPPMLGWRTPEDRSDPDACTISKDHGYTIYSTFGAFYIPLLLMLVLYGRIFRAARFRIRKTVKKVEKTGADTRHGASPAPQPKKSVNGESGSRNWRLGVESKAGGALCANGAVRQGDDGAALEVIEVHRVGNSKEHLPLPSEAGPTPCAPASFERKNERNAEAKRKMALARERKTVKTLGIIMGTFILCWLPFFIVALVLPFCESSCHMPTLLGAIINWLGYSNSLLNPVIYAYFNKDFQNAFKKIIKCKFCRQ

[15] = molecular target: T8, recombinant human dopamine transporter (Homo sapiens, UniProt Q01959); assay: [3H]dopamine uptake by HEK-hDAT cells; assay type: cell-based
T8 sequence (Q01959 whole entry): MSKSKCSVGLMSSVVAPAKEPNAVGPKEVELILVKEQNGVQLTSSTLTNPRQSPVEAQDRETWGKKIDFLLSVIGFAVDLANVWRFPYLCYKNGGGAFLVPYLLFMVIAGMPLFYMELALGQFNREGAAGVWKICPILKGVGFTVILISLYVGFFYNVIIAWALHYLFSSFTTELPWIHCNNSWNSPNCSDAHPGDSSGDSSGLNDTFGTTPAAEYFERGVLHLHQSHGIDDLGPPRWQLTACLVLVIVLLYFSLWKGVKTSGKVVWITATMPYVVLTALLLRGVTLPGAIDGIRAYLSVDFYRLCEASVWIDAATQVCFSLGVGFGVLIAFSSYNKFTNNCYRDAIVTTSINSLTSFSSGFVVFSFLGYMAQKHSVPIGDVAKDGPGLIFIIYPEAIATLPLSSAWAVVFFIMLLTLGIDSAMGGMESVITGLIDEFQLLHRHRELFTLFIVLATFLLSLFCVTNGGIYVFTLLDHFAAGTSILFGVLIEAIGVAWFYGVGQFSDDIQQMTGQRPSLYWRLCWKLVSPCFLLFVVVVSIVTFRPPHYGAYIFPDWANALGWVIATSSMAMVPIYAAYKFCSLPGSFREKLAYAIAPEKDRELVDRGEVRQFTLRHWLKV

[16] = molecular target: T5, recombinant human norepinephrine transporter; assay: cell-based
[17] = molecular target: T8, recombinant human dopamine transporter; assay: [125I]RTI-55 binding to HEK-hDAT cells
[18] = prophylactic use; from 8.7 to 14 mg/kg with free/whole brain ratio […]
[19] = varies by preparation, ref Wiedekam et al., 1998, cited from earlier work
[20] = molecular target: T9, h5-HT2C receptor (Homo sapiens, UniProt P28335); assay: cell-based
T9 sequence (P28335 33-458): T6 sequence (P28335 33-458)

[21] = read-out: D2 [3H]YM 09151-2 Ki, in μM
[22] = read-out: D4.4 [3H]YM 09151-2 Ki, in μM
[23] = read-out: h5-HT2C [125I]DOI Ki (nM) ± SEM, HEK-h5-HT2C membranes

T1 sequence (P28223 whole entry): as the sequence (P28223 whole entry) above

CCN(CC)C(=O)[C@@H]1C=C2c3cccc4[nH]cc(c34)C[C@H]2N(C)C1 [LSD, lysergic acid diethylamide]
agonist character at h5-HT2A receptor, IP-1 formation (in words) [1]: full agonists
Ki ([2]; read-out: D2 [3H]YM 09151-2 Ki (nM) ± SEM): 38.8 ± 1.8 nM
Ki ([3]; read-out: D3 [3H]YM 09151-2 Ki (nM) ± SEM): 27.1 ± 1.3 nM
Ki [4]: 273 ± 89 nM
agonist activity at hD3 receptor, mitogenesis (in words) [5]: full agonist
D3 mitogenesis % stimulation ([5]; normalized to the maximal stimulation by quinpirole): 104.4 ± 6.1%
EC50 ([5]; read-out: D3 mitogenesis EC50 (nM) ± SEM (n), agonist mode, NC: the data did not converge): 48 ± 14 nM
Ki ([6]; read-out: D4.4 [3H]YM 09151-2 Ki (nM) ± SEM): 330 ± 120 nM
Ki ([7]; read-out: Norepinephrine transporter, inhibition of [125I]RTI-55 binding Ki (nM) ± SEM): 5600 nM
D2 mitogenesis % stimulation [8]: 47.9 ± 6.2%
agonist activity at hD2 receptor, mitogenesis (in words) [8]: partial agonist
EC50 ([8]; read-out: D2 mitogenesis EC50 (nM) ± SEM (n)): 18.1 nM
effect on IP-1 accumulation in nontransfected cells (in words) [9]: no effect

OC(c1cc(C(F)(F)F)nc2c(C(F)(F)F)cccc12)C1CCCCN1 (single isomer, unassigned; (-)) [(−)-Mefloquine]
Ki [2, 21]: > 10000 nM
Ki [6, 22]: > 10000 nM

CN1CCc2cc(Cl)c(O)cc2C(c2ccccc2)C1 (centres unmarked) [SCH23390, 7-chloro-3-methyl-1-phenyl-1,2,4,5-tetrahydro-3-benzazepin-8-ol]
Ki [2]: 887 ± 17 nM
Ki [6]: 9700 ± 1100 nM

CN(C)CCc1c[nH]c2ccccc12 [DMT, N,N-dimethyltryptamine]
EC50 [1]: 227 ± 64 nM
agonist character at h5-HT2A receptor, IP-1 formation (in words) [1]: partial agonist
Ki [10]: 175 ± 42 nM
Ki [11]: 53 ± 10 nM

C[C@H](N)Cn1ccc2cc(F)c(Cl)cc21 [Ro60-0175]
Ki [12, 23]: 7.3 ± 1.6 nM

O[C@H](c1cc(C(F)(F)F)nc2c(C(F)(F)F)cccc12)[C@@H]1CCCCN1 [(+)-Mefloquine]
Ki [2, 21]: > 10000 nM
antagonist activity at D3 receptor, mitogenesis (in words) ([5]; against quinpirole): fully antagonized
D3 mitogenesis % inhibition ([5]; antagonism of quinpirole (30 nM)-stimulated mitogenesis): 97.3 ± 2.7%
agonist activity at hD3 receptor, mitogenesis (in words) [5]: no agonist activity
Ki [6, 22]: > 10000 nM
antagonist activity at D2 receptor, mitogenesis (in words) ([8]; against quinpirole): no antagonist activity
agonist activity at hD2 receptor, mitogenesis (in words) ([8]; compared to quinpirole): no agonist activity
effect on IP-1 accumulation in nontransfected cells (in words) [9]: no effect

CCN(CC)CCCC(C)Nc1ccnc2cc(Cl)ccc12 (racemic) [Chloroquine, (RS)-N′-(7-chloroquinolin-4-yl)-N, N-diethyl-pentane-1,4-diamine]
Ki [6]: > 10000 nM

CC(C)(C)[C@]1(O)CCN2C[C@H]3c4ccccc4CCc4cccc(c43)[C@@H]2C1 [Butaclamol]
inhibition at 0.03 µM ([8]; read-out: D2 mitogenesis % inhibition): 98.1 ± 1.9%

Oc1cc2c(cc1O)C(c1ccccc1)CNCC2 (centres unmarked) [SKF 38393, 1-phenyl-2,3,4,5-tetrahydro-1H-3-benzazepine-7,8-diol]
Ki [3]: 4300 ± 1800 nM
Ki [6]: 28000 ± 13000 nM

COc1cc(CC(C)N)c(OC)cc1C (centres unmarked) [DOM, 2,5-dimethoxy-4-methylamphetamine]
EC50 [1]: 24.7 ± 8.5 nM
agonist character at h5-HT2A receptor, IP-1 formation (in words) [1]: full agonists
Ki [10]: 13.7 ± 6 nM
Ratio ketanserin/DOI Ki ([10]; h5-HT2A, Ki [3H]ketanserin over Ki [125I]DOI): 6.65 ^**
Ki [13]: 4.3 ± 1.2 nM
Ki [11]: 2.06 ± 0.52 nM
Ki [14]: 14200 nM

NCCc1c[nH]c2ccc(O)cc12 [5-HT, serotonin]
effect on IP-1 accumulation in nontransfected cells (in words) [9]: no effect

C=C[C@H]1C[N@@]2CC[C@H]1C[C@H]2[C@H](O)c1ccnc2ccc(OC)cc12 [Quinine, (R)-(6-Methoxyquinolin-4-yl)((2S,4S,8R)-8-vinylquinuclidin-2-yl)methanol]
IC50 [15]: > 10000 nM
IC50 [16]: > 10000 nM
Ki [17]: > 8300 nM
Ki [7]: > 5500 nM

OC(c1cc(C(F)(F)F)nc2c(C(F)(F)F)cccc12)C1CCCCN1 (stereo not drawn) [mefloquine, [(R*, S*)-2,8-bis(trifluoromethyl)quinolin-4-yl]-(2-piperidyl)methanol]
increase of IP-1 above basal activity in transfected cells ([1]; HEK-h5-HT2A and HEK-h5-HT2C transfected cells together, 100 μM (+)mefloquine, Fig 2c): 3–5 fold
free mefloquine in brain, translated from brain levels [18]: 100 to 135 nM
Cmax ([19]; conversion of 1018 μg/L): ~2600 nM
Cmax [19]: 1018 ng/mL

Cc1cc2c(cc1Cl)N(C(=O)Nc1ccc(Oc3cccnc3C)nc1)CC2 [SB242087]
Ki [13]: 120 ± 32 nM
Ki [14]: > 9300 nM
IC50 [20]: 0.167 ± 0.061 nM
h5-HT2C IP1 formation % inhibition [20]: 93.7 ± 5.5%
Ki [12]: 11.4 ± 4 nM

COc1ccccc1N1CCN(CCN(C(=O)C2CCCCC2)c2ccccn2)CC1 [WAY 100635]
Ki [12, 23]: 3000 nM
